Experimental data reported in US10434086B2, “Combination therapies with curaxins” (Incuron, Inc., priority 2014, dated 2019).
Like-named read-outs stand apart in the source and are kept apart here.

Key:
A549 = A549 engraft experiment; type: in vivo; conditions: one engraft experiment
[1] = test system: patient-derived PDA #13756 tumors; test: PDA #13756 study: CBL0137/gemcitabine against patient-derived pancreatic tumor engrafts; type: in vivo, SCID mice
Description: (§1) Seventy and sixty female athymic nude mice were obtained for each H1975 Non-Small Cell Lung Cancer Xenograft study and split into treatment groups consisting of 10 animals per group (2 cages of 5 mice per cage).
(§2) Preparation and subcutaneous implantation of tumor pieces: HepG2 tumors (passage 2 for HepG2 study and passage 1 for HepG2 (sub-dose CLB0137) study) or Hep3B tumors (passage 1 for Hep3B study and passage 9 for Hep3B (sub-dose CLB0137) study) were propagated in athymic nude mice and harvested from euthanized mice when they reached ˜500-900 mm^3. PDA tumors (passage 6) were propagated in SCID mice (both flanks) and harvested from euthanized mice when they reached ˜600-700 mm^3 in size. Harvested tumors were transferred to a sterile Petri dish containing RPMI-10% FBS medium or D-PBS plus penicillin/streptomycin. Enough media was added to bathe the tumor in order to ensure the viability of the transplant material. Tumors were dissected into 2 mm×2 mm cubes using a sterile scalpel. Care was taken to make the pieces as uniform in size and shape as possible. Tumor pieces were implanted into recipient mice immediately after being prepared.
(§3) Tumor Size Measurements: Tumor size was measured by digital caliper in two dimensions (in mm): maximum length (l) and maximum width (w) taken perpendicular to one another. The measurements were used to calculate tumor volume according to the formula: tumor volume=(l×w2)/2 (w<l). The value obtained by this formula is also equal to the mass of the tumor in mg. Starting 2 days after tumor implantation, tumor measurements were made every 2-3 days prior to treatment initiation and then twice per week (e.g., on Day 1 (D1, the day of treatment initiation), D4, D8, D11, D15, D18, D22, D25, D29, D32, D36, D39, D43, D46, D50, D53 and D57). Tumor measurements were collected more frequently when tumor size approached the tumor size endpoint in order to prevent passing the endpoint between scheduled measurements.
(§4) Administration of test and control articles: Mice were administered the designated solutions when the mean tumor volume per treatment group was ˜45-200 mm^3.
The volume of dosing solution administered ip or iv was 8 ml/kg mouse body weight. Intravenous injections were performed via the tail vein. […]
Monitoring and Sample Collection: Twice daily, mice were monitored for mortality and morbidity for the duration of the experiment. […] All abnormal observations were documented and semi-quantitative scores were assigned for “body condition,” “posture,” and “activity.” Scores of 4, 3, 2, and 1 were assigned to normal conditions (4), and slightly (3), moderately (2) and severely (1) abnormal conditions, respectively. […]
Data analysis: For all study groups, maximum tumor growth inhibition was calculated for Day 11, 13, or 15 (Day X). […] For each tumor, relative tumor size was calculated relative to its size on Day 1 when treatment was initiated (i.e., fold tumor growth). […] Differences in tumor sizes between groups were determined using ANOVA analysis (GraphPad Prism 5 Software) where “*” refers to P=0.01-0.05 (significant), “**” refers to P=0.001-0.01 (very significant) and “***” refers to P<0.001 (extremely significant), Differences that were not statistically significant are indicated with “ns”. […] Tumor growth delay (T−C) was calculated by subtracting the median time for the control to reach the 1000 mm^3 size endpoint from that of the median time for the treated groups to reach the size endpoint.

H1975 NSCLC tumors = test system: H1975 NSCLC tumors
Method: as §1
Description of H1975 NSCLS test material: Human H1975 NSCLC cell line (originally from ATCC) suspension was mixed 1:1 with Matrigel at 5×10^7 cells/ml (5×10^6 cells delivered per 100 μl injection) and kept on ice until inoculation.
For the NSCLC studies, solutions were prepared in two lots (once per 2 weeks) to ensure that fresh solutions were used throughout the study.
Preparation and inoculation of tumor cells: The night before inoculation, the Matrigel was placed on ice in the refrigerator to thaw. Prior to the start of cell harvesting, a supply of pipettes, tubes and tips were placed into the freezer so that they were cold when it was time to work with the Matrigel. One ml syringes and ½″ 23 G needles were also pre-chilled. This step was necessary to prevent premature solidification of Matrigel, which becomes solid at room temperature or higher (i.e., 37° C.).
H1975 cell suspension was prepared immediately before tumor inoculation in PBS. H1975 cells at passage 16 were harvested from forty 150 mm diameter dishes and diluted to 10×10^7 cells/ml in PBS (5.87 ml). Just prior to inoculation, using pre-chilled tips and tubes, 4.5 ml of this cell suspension was mixed with an equal volume of Matrigel (1:1) to a total volume of 9 mL Cell suspensions were kept on ice. The final concentration of cells was […].
Prior to inoculation of mice, the tumor cell-Matrigel mixture was carefully mixed by inverting the tube several times. A pre-chilled 1 nil syringe was filled with tumor cell-Matrigel mixture and then a pre-chilled ½″ 23 G capped needle was attached to the end of syringe to perform the injection. The closed filled syringe was inverted several times and then 100 μl of the cell-Matrigel mixture was inoculated subcutaneously into the left flank of each mouse.
For inoculation, mice were anesthetized with isoflurane (3-4% induction in 100% O2, 1-2% maintenance) to aid in proper subcutaneous inoculation.
as §3, §4
For all groups, Q4 d dosing was performed on D1, 05, 09, 013, 017, 021, 025, and 029 of the study. For groups that received only one drug rather than both, the vehicle for the drug that was not given was administered in its place as a mock administration. The volume of dosing solution administered ip or iv was 8 ml/kg mouse body weight. Intravenous injections were performed via the tail vein. Administration of drugs was done slowly without force on the syringe.
Monitoring and Sample Collection: Twice daily, mice were monitored for mortality and morbidity for the duration of the experiment. […] All abnormal observations were documented and semi-quantitative scores were assigned for “body condition,” “posture,” and “activity.” Scores of 4, 3, 2, and 1 were assigned to normal conditions (4), and slightly (3), moderately (2) and severely (1) abnormal conditions, respectively.

[2] = test system: patient-derived PDA #13590 tumors; test: PDA #13590 study: CBL0137/gemcitabine against patient-derived pancreatic tumor engrafts; type: in vivo, SCID mice
Description: as §1, §2, §3, §4
The volume of dosing solution administered ip or iv was 8 ml/kg mouse body weight. Intravenous injections were performed via the tail vein. Administration of drugs was done slowly without force on the syringe.
Monitoring and Sample Collection: Twice daily, mice were monitored for mortality and morbidity for the duration of the experiment. […] All abnormal observations were documented and semi-quantitative scores were assigned for “body condition,” “posture,” and “activity.” Scores of 4, 3, 2, and 1 were assigned to normal conditions (4), and slightly (3), moderately (2) and severely (1) abnormal conditions, respectively. Cages were taken to a laminar flow hood and opened in order to clearly assess mouse activity.
Data analysis: For all study groups, maximum tumor growth inhibition was calculated for Day 11, 13, or 15 (Day X). […] For each tumor, relative tumor size was calculated relative to its size on Day 1 when treatment was initiated (i.e., fold tumor growth). To calculate the maximum tumor growth inhibition for each tumor, the following equation was used: 100−(fold tumor growth drug-treated Day X/mean fold tumor growth vehicle-treated Day X)*100. Differences in tumor sizes between groups were determined using ANOVA analysis (GraphPad Prism 5 Software) where “*” refers to P=0.01-0.05 (significant), “**” refers to P=0.001-0.01 (very significant) and “***” refers to P<0.001 (extremely significant), Differences that were not statistically significant are indicated with “ns”. […] Tumor growth delay (T−C) was calculated by subtracting the median time for the control to reach the 1000 mm^3 size endpoint from that of the median time for the treated groups to reach the size endpoint.

## Nc1ccn([C@@H]2O[C@H](CO)[C@@H](O)C2(F)F)c(=O)n1 [gemcitabine]
A549
  response of A549 in engraft experiment (in words): resistant to gemcitabine
[1]; Day 15, gemcitabine 40 mg/kg ip Q4d, CBL0137 80 mg/kg iv 1×/wk, 4 weeks
  mean fold tumor growth: 0.55 fold
[1]; Day 29
  tumor growth (in words): regression of all tumors
[1]; Day 54
  mean fold tumor growth: 26.7 fold
[1]; by Day 15
  individual tumors regressed or disappeared: 8/10
[1]; gemcitabine 40 mg/kg ip Q4d, CBL0137 80 mg/kg iv 1×/wk
  animal survival time: 54 days
H1975 NSCLC tumors; 2000 mm^3 size endpoint, vehicle 15.6 days
  median time to reach endpoint: 47.8 days
H1975 NSCLC tumors; Day 5, vehicle 1/9
  individual tumors smaller than at start of treatment on Day 1: 9/10
H1975 NSCLC tumors; Day 15
  tumor growth inhibition: 88.8%
H1975 NSCLC tumors; Day 15, vehicle 8.52-fold
  mean fold tumor growth: 0.958 fold
H1975 NSCLC tumors; Day 22
  tumor growth inhibition: 82.6%
H1975 NSCLC tumors; Day 22, CBL0137 70 mg/kg iv Q4d, gemcitabine 40 mg/kg ip Q4d, vehicle 15.2
  mean fold tumor growth: 2.7 fold
H1975 NSCLC tumors; Day 39
  mean fold tumor growth: 3.66 fold
H1975 NSCLC tumors; mouse, in vivo
  delay in tumor growth (relative to vehicle treatment): 32.2 days
  signs of morbidity: no signs of morbidity
  toxicity, cage-side observations: None of the cage-side observations were indicative of any toxicity
H1975 NSCLC tumors; vehicle 16 days
  median survival time (MST): 48.5 days
H1975 NSCLC tumors; vehicle 22 days
  median survival time (MST): 51.5 days
[2]; Day 29, vehicle 1/9
  individual tumors showing regression or disappeared: 6/6
[2]; Day 57
  mean fold tumor growth: 7.91±2.7 fold
[2]; Day 71
  mean fold tumor growth: 12.98±3.9 fold
[2]; Day 88, vehicle 0/5
  animals surviving to the end of the study: ¼
[2]; PDA #13590
  antitumor efficacy (in words): effective against PDA #13590 tumor growth as single agents
[2]; vehicle 46 days, study end Day 88
  median survival time (MST): 76.5 days
